Laboratory results reported in patent US20260138976A1 (Hoffmann-La Roche Inc., priority 2022, published 2026).

How the values were obtained:
[1] = biological target: T1, DGKα (hDGKalpha(1-735)-N-His) (Homo sapiens, UniProt P23743); test: In vitro DGK inhibition assay, DGKalpha ADP Glo (in house); format: biochemical; details: 4 nM DGKα, 25 μM ATP, 125 uM DLG in liposomes, 1 hour reaction
T1 construct: hDGKalpha(1-735)-N-His; His (N); made in house; host or cells: Sf21 insect cells (baculovirus)
Description: (§1) DGKα and ζ kinases use ATP to phosphorylate the substrate 1,2-dilauroyl-sn-glycerol (DLG, incorporated in the liposomes). ATP is converted to ADP as a result of this enzymatic reaction. After the kinase reaction, an ATP-depletion reagent is added to terminate the kinase reaction and deplete any remaining ATP, leaving only ADP. Second, a detection reagent is added to simultaneously convert ADP to ATP and allow the newly synthesized ATP to be converted to light using a coupled luciferase/luciferin reaction.
(§2) Full length DGKα and ζ were expressed in Sf21 insect cells by infecting the cells with the baculovirus stock at MOI of 2. Purification of both enzymes was performed as previously described by Takahashi et al., PeerJ, 2018 (Takahashi, D.; Sakane, F. Expression and purification of human diacylglycerol 5 kinase alpha from baculovirus-infected insect cells for structural studies. PeerJ2018, 6, No. e5449).
(§3) A concentrated liposome solution was prepared in assay buffer without DTT and BSA: 2 mM of DLG in 21 mM of total liposome (2 mM DLG/8 mM PS/11 mM PC). The reaction mixtures contain the assay buffer with a final DLG concentration of 125 uM ATP concentrations of 25 μM (for DGKA assay) or 50 μM (for DGKZ assay). The reactions were started by addition of DGK α and ζ kinases at 4 nM and 2 nM final concentrations, respectively. After 1 hour reaction, the amount of ADP formed was detected with the ADP-Glo kinase assay (Promega) according to the manufacturer instructions. Compounds were added in 11-points dose response, starting at […], 1:3 dilutions, with a final DMSO concentration of 2%. The multidrop combi was used as a liquid handler and luminescence was read with 0.5 s by the envision reader (PE).

[2] = biological target: T2, DGKζ (hDGKzeta(1-928)-N-His) (Homo sapiens, UniProt Q13574); test: In vitro DGK inhibition assay, DGKzeta ADP Glo (in house); format: biochemical; details: 2 nM DGKζ, 50 μM ATP, 125 uM DLG in liposomes, 1 hour reaction
T2 construct: hDGKzeta(1-928)-N-His; His (N); made in house; host or cells: Sf21 insect cells (baculovirus)
Description: as §1, §2, §3

[3] = test system: primary human T-cells; test: Proliferation assay (5 days, CellTiter-Glo, CD3-stimulated T-cells); format: cell-based; details: for Emax proliferation (% activation): CD3 condition, normalised to DMSO (neutral) and 20 μM reference compound A1 = 100%; for EC50: Homo sapiens, T-cell, 120 h, CD3-stimulated primary human T-cells, 5 days, CellTiter-Glo, fitted sigmoidal curve, read-out: Tcell Proliferation CD3 EC50
Description: As readouts for T-cell activation, 1L2 secretion after 24 hours and proliferation after 5 days was measured. Increases in IL2 secretion and proliferation upon compound treatment were assessed as the % of the maximum of reference compound A1. WO 2016/139181 discloses reference compound A1 as example 70. As a counter screen and to make sure that no unwanted TCR-independent activation was triggered, PBS conditions were run for all compounds.
Expanded primary human T-cells are thawed and cultured in RPMI 1640 (Gibco, #61870-010)+5% human serum (HS, Sigma, #H3667)+1 mM Sodium Pyruvate (Gibco, #11360-039)+50 μM 2-mercaptoethanol (Gibco, #31350-010) and 1× Pen-Strep (Life Technologies, #15140122) medium at density of 2 Mio/ml for 3 hours in 5% CO2, 37° C. and 95% humidity. For coating of plates, PBS++ only or PBS++ with CD3 antibody (concentration depending on donor and determined by CD3 titrations) is added 100 μl/well to Poly-D Lysine coated 96-well plates. Plates are sealed and incubated at room temperature for 3 hours on a table-top rocking platform. After incubation, plates are washed once with PBS−− and filled with 40 μl/well culture medium only. Compounds are then added (see next section) to medium only plates. After 3 hours of culturing the T-cells, cells are filtered through a cell strainer (Miltenyi Biotech, #130-041-407), counted again and concentration is adjusted to 1.25 Mio/ml.
Cells are then seeded 80 μl/well to the 40 μl/well including dispensed compounds according to plate layout. By adding cells, compounds are further diluted 1:3, and resulting in 100 k cells/120 μl/well. After 48 hours 40 μl of supernatant is collected carefully from the top while not disturbing the cells. Cells are assessed for proliferation 5 days later by measuring […] using CellTiterGlo (Promega).
Compounds were added in a 5 or 6 pt dose response with the Tecan D300e Digital Dispenser, all conditions 3 times more concentrated than the end-concentration, since cells are added afterwards (80 μl cells to 40 μl prepared medium with treatment). The DR was starting at 20 μM or 10 μM final top concentration and a dilution factor of 3.333. The positive control was the reference compound A1 that was added in a dose response as well, additionally to 3 wells of only 20 μM representing the positive stimulator control. All wells were normalized with DMSO to a final concentration of 0.6% (0.2% end-concentration).
After 5 days, for detection of ATP which is directly proportional to the number of cells present per well, the CellTiter-Glo® 2.0 Reagent is used. After visual control for toxicity or precipitations of the tested compounds, the plates are equilibrated to room temperature for 45 minutes. CellTiter-Glo® 2.0 Reagent is equilibrated to room temperature as well. After equilibration, an equal amount of CellTiter-Glo reagent is added to the cells (80 μl/well) with an electronic multichannel pipette. Plates are placed on a rocking platform for 15 minutes at room temperature. After incubation, the bottom of the plates is sealed with backing tape. Luminescence is measured with PHERAstar FSX (interval time 0.5 sec, gain 3000, focal height 15 mm) and exported as CSV file for analysis in Genedata screener.
CD3 and PBS plates were analysed separately in Genedata Screener using Roche Normalization PCT_POS_CTRL with DMSO set as Neutral Control and 20 μM of the reference compound A1 set as Stimulator Control/100%.
For CD3 conditions EC50 and Emax of the fitted sigmoidal curve were reported. If no curve could be fitted, the EC50 was reported as blank field and the Emax was based on individual data points. […] Compounds which activate unstimulated cells (see IL2 measurements) or compounds which negatively affected viability were flagged.

T1 sequence (P23743 whole entry): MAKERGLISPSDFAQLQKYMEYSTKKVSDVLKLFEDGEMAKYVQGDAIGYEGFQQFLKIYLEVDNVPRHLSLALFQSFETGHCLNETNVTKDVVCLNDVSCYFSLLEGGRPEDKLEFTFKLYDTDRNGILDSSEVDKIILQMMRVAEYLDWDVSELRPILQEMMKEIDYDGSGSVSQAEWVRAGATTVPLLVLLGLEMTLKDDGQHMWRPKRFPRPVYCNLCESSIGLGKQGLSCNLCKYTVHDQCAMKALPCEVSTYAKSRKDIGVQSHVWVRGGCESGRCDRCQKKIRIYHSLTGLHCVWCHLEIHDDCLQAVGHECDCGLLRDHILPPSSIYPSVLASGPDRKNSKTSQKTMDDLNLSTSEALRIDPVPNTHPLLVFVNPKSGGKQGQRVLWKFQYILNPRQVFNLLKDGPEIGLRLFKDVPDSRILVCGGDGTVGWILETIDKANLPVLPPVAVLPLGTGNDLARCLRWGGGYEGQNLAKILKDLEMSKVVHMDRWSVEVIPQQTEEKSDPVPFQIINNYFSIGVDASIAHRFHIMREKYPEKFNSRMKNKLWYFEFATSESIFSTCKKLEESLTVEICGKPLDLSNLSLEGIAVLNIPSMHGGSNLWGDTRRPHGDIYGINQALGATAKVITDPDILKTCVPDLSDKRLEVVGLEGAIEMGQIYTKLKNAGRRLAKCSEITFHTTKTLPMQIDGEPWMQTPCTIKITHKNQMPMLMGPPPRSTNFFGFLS
T2 sequence (Q13574 whole entry): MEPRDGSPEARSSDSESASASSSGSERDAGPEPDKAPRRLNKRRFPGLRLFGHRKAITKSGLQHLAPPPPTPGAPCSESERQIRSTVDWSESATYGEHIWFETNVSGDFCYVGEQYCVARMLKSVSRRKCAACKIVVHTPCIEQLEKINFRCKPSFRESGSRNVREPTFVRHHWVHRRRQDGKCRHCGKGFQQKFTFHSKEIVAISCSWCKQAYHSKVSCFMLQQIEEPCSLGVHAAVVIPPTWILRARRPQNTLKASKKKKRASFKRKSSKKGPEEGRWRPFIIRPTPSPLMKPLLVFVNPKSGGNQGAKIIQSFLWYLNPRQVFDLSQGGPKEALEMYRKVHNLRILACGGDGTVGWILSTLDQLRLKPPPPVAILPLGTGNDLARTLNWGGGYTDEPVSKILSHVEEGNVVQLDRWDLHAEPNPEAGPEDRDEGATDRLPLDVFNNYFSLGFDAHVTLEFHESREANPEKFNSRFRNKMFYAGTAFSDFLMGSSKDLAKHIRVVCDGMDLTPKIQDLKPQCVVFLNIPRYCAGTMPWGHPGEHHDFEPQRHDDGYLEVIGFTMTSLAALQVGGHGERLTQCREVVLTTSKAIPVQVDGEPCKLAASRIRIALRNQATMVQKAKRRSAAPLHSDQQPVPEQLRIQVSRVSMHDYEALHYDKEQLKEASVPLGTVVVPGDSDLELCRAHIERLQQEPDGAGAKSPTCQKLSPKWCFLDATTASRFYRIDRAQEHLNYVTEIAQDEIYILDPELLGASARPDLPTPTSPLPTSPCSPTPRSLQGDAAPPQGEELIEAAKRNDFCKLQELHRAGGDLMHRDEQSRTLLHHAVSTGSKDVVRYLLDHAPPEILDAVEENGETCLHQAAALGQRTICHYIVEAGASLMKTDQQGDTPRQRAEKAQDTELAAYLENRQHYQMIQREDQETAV

| Compound | IC50 [1] | IC50 [2] | Emax proliferation (% activation) [3] | EC50 [3] |
| --- | --- | --- | --- | --- |
| N[C@H]1CS(=O)(=O)c2ccc(-c3nnc(C4(N)CCC(F)(F)CC4)o3)cc2N(Cc2ccc(-c3ccc(OC(F)(F)F)cn3)cc2)C1=O [Example 178, (3R)-3-amino-7-[5-(1-amino-4,4-difluoro-cyclohexyl)-1,3,4-oxadiazol-2-yl]-1,1-dioxo-5-[[4-[5-(trifluoromethoxy)-2-pyridyl]phenyl]methyl]-2,3-dihydro-1λ^6,5-benzothiazepin-4-one] | 7100 nM | 1690 nM | 96 % activation | 133 nM |
| N#CC1(c2nnc(-c3ccc4c(c3)N(Cc3ccc(-c5ccc(OC(F)(F)F)cn5)cc3)C(=O)[C@@H](N)CS4(=O)=O)o2)CCOCC1 [Example 173, 4-[5-[(3R)-3-amino-1,1,4-trioxo-5-[[4-[5-(trifluoromethoxy)-2-pyridyl]phenyl]methyl]-2,3-dihydro-1λ^6,5-benzothiazepin-7-yl]-1,3,4-oxadiazol-2-yl]tetrahydropyran-4-carbonitrile] | 2060 nM | 416 nM | 101 % activation | 235 nM |
| CC(C)(C#N)c1nnc(-c2ccc3c(c2)N(Cc2ccc(-n4cc(C(F)(F)F)nn4)cc2)C(=O)[C@@H](N)CS3(=O)=O)o1 [Example 145, 2-[5-[(3R)-3-amino-1,1,4-trioxo-5-[[4-[4-(trifluoromethyl)triazo1-1-yl]phenyl]methyl]-2,3-dihydro-1λ^6,5-benzothiazepin-7-yl]-1,3,4-oxadiazol-2-yl]-2-methyl-propanenitrile] | 18000 nM | 955 nM | 86 % activation | 4260 nM |
| CC(C)(C#N)Cc1nnc(-c2ccc3c(c2)N(Cc2ccc(-c4ccc(OC(F)(F)F)cn4)cc2)C(=O)[C@@H](N)CS3(=O)=O)o1 [Example 174, 3-[5-[(3R)-3-amino-1,1,4-trioxo-5-[[4-[5-(trifluoromethoxy)-2-pyridyl]phenyl]methyl]-2,3-dihydro-1λ^6,5-benzothiazepin-7-yl]-1,3,4-oxadiazol-2-yl]-2,2-dimethyl-propanenitrile] | 9300 nM | 1140 nM | 124 % activation | 543 nM |
| Cn1nc(OC(F)(F)F)cc1-c1ccc(CN2C(=O)[C@@H](N)CS(=O)(=O)c3ccc(-c4nnc(C(C)(C)C#N)o4)cc32)cc1 [Example 148, 2-[5-[(3R)-3-amino-5-[[4-[2-methyl-5-(trifluoromethoxy)pyrazol-3-yl]phenyl]methyl]-1,1,4-trioxo-2,3-dihydro-1λ^6,5-benzothiazepin-7-yl]-1,3,4-oxadiazol-2-yl]-2-methyl-propanenitrile] | 737 nM | 1050 nM | 186 % activation | 182 nM |
| CC(C)(C#N)c1nnc(-c2ccc3c(c2)N(Cc2ccc(-c4ccc(OC(F)(F)F)nc4)cc2)C(=O)[C@@H](N)CS3(=O)=O)o1 [Example 137, 2-[5-[(3R)-3-amino-1,1,4-trioxo-5-[[4-[6-(trifluoromethoxy)-3-pyridyl]phenyl]methyl]-2,3-dihydro-1λ^6,5-benzothiazepin-7-yl]-1,3,4-oxadiazol-2-yl]-2-methyl-propanenitrile] | 11200 nM | 660 nM | 124 % activation | 406 nM |
| CC(C)(C#N)c1nnc(-c2ccc3c(c2)N(Cc2ccc(-n4cc(OC(F)(F)F)cn4)cc2)C(=O)[C@@H](N)CS3(=O)=O)o1 [Example 138, 2-[5-[(3R)-3-amino-1,1,4-trioxo-5-[[4-[4-(trifluoromethoxy)pyrazol-1-yl]phenyl]methyl]-2,3-dihydro-1λ^6,5-benzothiazepin-7-yl]-1,3,4-oxadiazol-2-yl]-2-methyl-propanenitrile] | 657 nM | 465 nM | 158 % activation | 83.2 nM |
| Cc1cc(-c2ccc(CN3C(=O)[C@@H](N)CS(=O)(=O)c4ccc(-c5nnc(C(C)(C)C#N)o5)cc43)cc2)ncc1OC(F)(F)F [Example 144, 2-[5-[(3R)-3-amino-5-[[4-[4-methyl-5-(trifluoromethoxy)-2-pyridyl]phenyl]methyl]-1,1,4-trioxo-2,3-dihydro-1λ^6,5-benzothiazepin-7-yl]-1,3,4-oxadiazol-2-yl]-2-methyl-propanenitrile] | 15500 nM | 860 nM | 87 % activation | 291 nM |
| CC(C)(C#N)c1nnc(-c2ccc3c(c2)N(Cc2ccc(-c4ccc(OCC(F)(F)F)cn4)cc2)C(=O)[C@@H](N)CS3(=O)=O)o1 [Example 135, 2-[5-[(3R)-3-amino-1,1,4-trioxo-5-[[4-[5-(2,2,2-trifluoroethoxy)-2-pyridyl]phenyl]methyl]-2,3-dihydro-1λ^6,5-benzothiazepin-7-yl]-1,3,4-oxadiazol-2-yl]-2-methyl-propanenitrile] | 1730 nM | 786 nM | 149 % activation | 257 nM |
| CCC(C#N)(CC)c1nnc(-c2ccc3c(c2)N(Cc2ccc(-c4ccc(OC(F)(F)F)cn4)cc2)C(=O)[C@@H](N)CS3(=O)=O)o1 [Example 176, 2-[5-[(3R)-3-amino-1,1,4-trioxo-5-[[4-[5-(trifluoromethoxy)-2-pyridyl]phenyl]methyl]-2,3-dihydro-1λ^6,5-benzothiazepin-7-yl]-1,3,4-oxadiazol-2-yl]-2-ethyl-butanenitrile] | 1530 nM | 1550 nM | 140 % activation | 85.7 nM |
